Data on 20 compounds can be found in ChEMBL document CHEMBL1137133, “Defining determinant molecular properties for the blockade of the apamin-sensitive SKCa channel in guinea-pig hepatocytes: the influence of polarizability and molecular geometry” (Bioorg Med Chem Lett, 2004).

A short description of assay [1]: Inhibition of apamin-sensitive SKCa channel of guinea-pig hepatocytes. The format is cell-based, Cavia porcellus. Particulars: hepatocyte.
The nature of assay [2]: Inhibition of I-apamin-sensitive SKCa channel of guinea-pig hepatocytes; 0.14+/-0.01. As to conditions: hepatocyte. The class given is cell-based, Cavia porcellus.

Structures are written as SMILES.

What is called IC50 is the concentration that gives 50% inhibition. The low end stands for inhibition by little substance, the high end for a need for much substance. In assay [1], `COc1ccc(CC2c3cc(OC)c(OC)cc3CC[N+]2(C)CCC(=O)OCCCCCOC(=O)CC[N+]2(C)CCc3cc(OC)c(OC)cc3C2Cc2ccc(OC)c(OC)c2)cc1OC` (stereo not given) gave a concentration for half-maximal inhibition (IC50) of 3 µM.
`COc1cc2c3cc1Oc1cc(ccc1O)C[C@@H]1c4c(cc(OC)c(O)c4Oc4ccc(cc4)C[C@@H]3N(C)CC2)CC[N+]1(C)C` showed an IC50 in assay [1] of 3 µM.
In general, Ki refers to a measure of affinity in units of concentration, obtained from inhibition or displacement. A higher Ki goes with lower affinity. For the compound `c1ccc2c(c1)c1cc[n+]2CCCCC[n+]2ccc(c3ccccc32)NCCCCCN1`, the inhibitory constant (Ki) in assay [2] amounted to 0.00014 µM.
In turn, `C=CC1CN2CCC1CC2[C@H](O)c1ccnc2ccccc12` (stereo not given in full) registered an IC50 in assay [1] of 420 µM.
Regarding `Nc1c2ccccc2nc2ccccc12` [AMINACRINE], inhibition in assay [1] was half-maximal at 120 µM (IC50).
On the same count and under the same terms, the same measure for `C=C[C@H]1CN2CC[C@H]1C[C@@H]2[C@@H](O)c1ccnc2ccccc12` [CINCHONINE]: 370 µM; for `C[N+](C)(C)CCCCCCCCCC[N+](C)(C)C` [DECAMETHONIUM]: 450 µM; for `Cc1cc(N)c2ccccc2[n+]1CCCCCCCCCC[n+]1c(C)cc(N)c2ccccc21` [DEQUALINIUM CHLORIDE]: 1.7 µM.
`CCCCOc1cc(C(=O)NCCN(CC)CC)c2ccccc2n1` [DIBUCAINE] came in with an IC50 in assay [1] of 470 µM.
Turning to `CC[N+](CC)(CC)CCOc1cccc(OCC[N+](CC)(CC)CC)c1OCC[N+](CC)(CC)CC` [GALLAMINE], in assay [1], the IC50 was 12 µM.
On the same count and under the same terms, the same measure for `C[N+](C)(C)CCCCCC[N+](C)(C)C` [HEXAMETHONIUM CHLORIDE]: 2000 µM.
In assay [1], `CC(=O)O[C@H]1C[C@@H]2CC[C@@H]3[C@H](CC[C@@]4(C)[C@H]3C[C@H]([N+]3(C)CCCCC3)[C@@H]4OC(C)=O)[C@@]2(C)C[C@@H]1[N+]1(C)CCCCC1` [PANCURONIUM] yielded an IC50 of 3.5 µM.
Same read-out and setting: the same measure for `COc1cc(NC(C)CCCN)c2ncccc2c1` (stereo not given) [PRIMAQUINE]: 970 µM.
On to `CCN(CC)CCCC(C)Nc1c2ccc(Cl)cc2nc2ccc(OC)cc12` (stereo not given) [QUINACRINE], for which, in assay [1], the IC50 is 73 µM.
Same read-out and setting: the same measure for `C=C[C@H]1CN2CC[C@H]1C[C@@H]2[C@@H](O)c1ccnc2ccc(OC)cc12` [QUINIDINE]: 240 µM.
The same measure, in the same setting: the same measure for `C=C[C@H]1CN2CC[C@H]1C[C@H]2[C@H](O)c1ccnc2ccc(OC)cc12` [QUININE]: 150 µM; for `O=C1C[C@@H]2OCC=C3CN4CC[C@]56c7ccccc7N1[C@H]5[C@H]2[C@H]3C[C@H]46` [STRYCHNINE]: 190 µM.
Turning to `CC[N+](CC)(CC)CC` [TETRYLAMMONIUM], inhibition in assay [1] was half-maximal at 7900 µM (IC50).
In the case of `c1ccc2c(c1)c1cc[n+]2Cc2ccc(cc2)Cc2ccc(cc2)C[n+]2ccc(c3ccccc32)NCCCCCCCCCCN1` [UCL-1530], half-maximal inhibition in assay [1] (IC50) was put at 2.6 µM.
In turn, `CC(=O)O[C@H]1C[C@@H]2CC[C@@H]3[C@H](CC[C@@]4(C)[C@H]3C[C@H]([N+]3(C)CCCCC3)[C@@H]4OC(C)=O)[C@@]2(C)C[C@@H]1N1CCCCC1` [VECURONIUM] registered an IC50 in assay [1] of 4.5 µM.
